20 compounds from patent US10344019B2 (priority 2010, dated 2019) can be followed below.

What all share (test): microbe, parasite or virus in culture
Holding throughout (type): cell-based

Assay [1] has as its system HCV 4a Rluc cells (NS5A chimeric genotype 1b Con1 replicon with genotype 4a NS5A gene). The conditions noted are these: Hepatitis C virus, read-out: 4a. The procedure, abridged: (§1)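 Replicon cells stably carrying the listed RLuc-encoding dicistronic replicons were seeded and treated with DMSO serial dilutions of compound (10 mM stocks) diluted into culture medium. After 72 h, cells were lysed and Renilla luciferase activity measured. EC50 was derived by non-linear regression.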

Assay [2] concerns HCV 3a RLuc cells (NS5A chimeric genotype 1b Con1 replicon with consensus genotype 3a NS5A gene). The following applies: Hepatitis C virus. The procedure, abridged: as §1
The subject of assay [3] is HCV 2a JFH-1 Rluc cells (dicistronic genotype 2a JFH-1 replicon, RLuc reporter). The conditions noted are these: Hepatitis C virus, genotype 2a JFH-1 replicon, read-out: 2a JFH. Put shortly: (§2)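 Renilla luciferase HCV replicon cells: dicistronic 1b Con1, 1a H77 or 2a JFH-1 replicons, or a JFH-1 chimera carrying J6 NS5A (M31 present). Compound in DMSO serial dilutions, 72 h incubation, then lysis and luciferase read. EC50 by non-linear regression.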

The subject of assay [4] is HCV 1b RLuc cells (dicistronic genotype 1b Con1 replicon, RLuc reporter). The following applies: Hepatitis C virus, read-out: 1b (nM). The procedure, abridged: as §2
For assay [5], the system named is HCV 1a RLuc cells (dicistronic genotype 1a H77 replicon, RLuc reporter). The conditions noted are these: Hepatitis C virus, read-out: 1a. Put shortly: as §2
The mark [6] stands for this setting: read-out: 3a, genotype 3a replicon.
Setting [7] is: read-out: 3a, genotype 3a NS5A chimeric 1b Con1 replicon.
The mark [8] stands for this setting: genotype 1a H77 replicon, RLuc reporter.
[9] abbreviates: read-out: 3a, Table 2, genotype 3a NS5A chimeric replicon.
Where [10] appears, read: 72 h, Table 2, genotype 1a H77 replicon, 72 hours.
Where [11] appears, read: read-out: 3a, Table 1, genotype 3a NS5A chimeric replicon.
Where [12] appears, read: 72 h, Table 1, genotype 1a H77 replicon, 72 hours.

Read-outs that look alike come from different tables or passages of the source. Bounds are passed on as bounds.

For `COC(=O)N[C@H](C(=O)N1CCC[C@H]1c1ncc(-c2cc3c4c(c2)OCc2cc(-c5cnc([C@@H]6CCCN6C(=O)[C@@H](NC(=O)OC)C6CCCC6)[nH]5)cc(c2-4)OC3)[nH]1)C1CCCC1` [Example 377], the EC50 in assay [1] is 0.001 to 0.99 nM; in assay [2] (setting [6]) it was 0.001 to 0.99 nM; in assay [3] it was 0.001 to 0.999 nM; in assay [4], 0.022 nM; in assay [5] (genotype 1a replicon), 0.001 to 0.999 nM.

On to `COC(=O)N[C@H](C(=O)N1CCC[C@H]1c1nc2ccc3cc(-c4ccc5cc(-c6cnc([C@@H]7CCCN7C(=O)[C@H](NC(=O)C(C)(C)O)c7ccccc7)[nH]6)ccc5c4)ccc3c2[nH]1)C(C)C` [Example 287], for which the EC50 was 0.001 to 0.99 nM in assay [1]; 0.001 to 0.99 nM in assay [2] (setting [7]); 0.001 to 0.999 nM in assay [3] (RLuc reporter); 0.006 nM in assay [4]; 0.001 to 0.999 nM in assay [5] (setting [8]).

Consider `COC(=O)N[C@H](C(=O)N1CCC[C@H]1c1nc2ccc3cc(-c4ccc(-c5[nH]c([C@@H]6C[C@H]7C[C@H]7N6C(=O)[C@@H](NC(=O)OC)C(C)C)nc5Cl)cc4)ccc3c2[nH]1)C(C)C` [Example 383], for which the EC50 in assay [1] is 0.001 to 0.99 nM; in assay [2] (setting [6]), 0.001 to 0.99 nM; in assay [3] it was 0.001 to 0.999 nM; in assay [4] it was 0.008 nM; in assay [5] (genotype 1a replicon), 0.001 to 0.999 nM.

With `CC#Cc1cc(-c2cnc([C@@H]3[C@H]4CC[C@H](C4)N3C(=O)[C@@H](NC(=O)OC)C3CCOCC3)[nH]2)ccc1-c1ccc2c(ccc3nc([C@@H]4CCCN4C(=O)[C@@H](NC(=O)OC)C(C)C)[nH]c32)c1` [Example 322], the EC50 in assay [1] is 0.001 to 0.99 nM; in assay [2] (setting [6]), 0.001 to 0.99 nM; in assay [3], 0.001 to 0.999 nM; in assay [4], 0.021 nM; in assay [5] (genotype 1a replicon), 0.001 to 0.999 nM.

`COC(=O)N[C@H](C(=O)N1CCC[C@H]1c1nc2c3ccccc3c3cc(-c4ccc(-c5cnc([C@@H]6CCCN6C(=O)[C@@H](NC(=O)OC)C6CCOCC6)[nH]5)cc4)ccc3c2[nH]1)C(C)C` [Example 300]: the EC50 in assay [1] was 0.001 to 0.99 nM; in assay [2] (setting [6]), 1 to 4.99 nM; in assay [3] it was 0.001 to 0.999 nM; in assay [4], 0.023 nM; in assay [5] (genotype 1a replicon), 1 to 44 nM.

As for `COC(=O)NC(C(=O)N1CCC[C@@H]1c1nc(-c2ccc3c(c2)C(F)(F)c2cc(-c4ccc5nc([C@@H]6[C@H]7CC[C@H](C7)N6C(=O)[C@H](NC(=O)OC)c6ccccc6)[nH]c5c4)ccc2-3)c[nH]1)[C@@H](C)OC` (stereo partly shown) [Example 81], the EC50 in assay [1] was 0.001 to 0.99 nM; in assay [2] (setting [9]), 0.001 to 0.99 nM; in assay [3] (72 h, Table 2, 72 hours), 0.001 to 0.999 nM; in assay [4] (72 h), 0.006 nM; in assay [5] (setting [10]) it was 0.001 to 0.999 nM.

Turning to `COC(=O)N[C@H](C(=O)N1CCC[C@H]1c1ncc(-c2ccc(-c3ccc4c(ccc5nc([C@@H]6SCCN6C(=O)[C@@H](NC(=O)OC)C(C)C)[nH]c54)c3)cc2)[nH]1)C(C)C` [Example 333], the EC50 is 0.001 to 0.99 nM in assay [1]; 1 to 4.99 nM in assay [2] (setting [6]); 0.001 to 0.999 nM in assay [3]; 0.646 nM in assay [4]; 1 to 44 nM in assay [5] (genotype 1a replicon).

Consider `COC(=O)NC(C(=O)N1CCC[C@H]1c1ncc(-c2cc3c4c(c2)CCc2cc(-c5cnc([C@@H]6CCCN6C(=O)[C@@H](NC(=O)OC)[C@@H](C)OC)[nH]5)cc(c2-4)CC3)[nH]1)[C@@H](C)OC` (stereo partly shown) [Example 21], for which the EC50 is 0.001 to 0.99 nM in assay [1]; 0.001 to 0.99 nM in assay [2] (setting [11]); 0.001 to 0.999 nM in assay [3] (72 h, Table 1, 72 hours); 0.06 nM in assay [4] (72 h); 0.001 to 0.999 nM in assay [5] (setting [12]).

`COC(=O)N[C@H](C(=O)N[C@H](c1nc(-c2ccc3c(c2)C(F)(F)c2cc(-c4ccc5nc([C@@H]6CCCN6C(=O)[C@H](NC(=O)OC)c6ccccc6)[nH]c5c4)ccc2-3)c[nH]1)C(C)C)C(C)C` [Example 226]: the EC50 is 0.001 to 0.99 nM in assay [1]; 1 to 4.99 nM in assay [2] (setting [7]); 1 to 44 nM in assay [3] (RLuc reporter); 0.009 nM in assay [4]; 1 to 44 nM in assay [5] (setting [8]).

Regarding `COC(=O)N[C@H](C(=O)N1CCC[C@H]1c1nc2c([nH]1)-c1ccc(-c3ccc4c(ccc5nc([C@@H]6CC7(CN6C(=O)[C@H](NC(=O)OC)c6ccccc6)OCCO7)[nH]c54)c3)cc1CC2)C(C)C` [Example 366], the EC50 in assay [1] is 0.001 to 0.99 nM; in assay [2] (setting [6]) it was 0.001 to 0.99 nM; in assay [3] it was 0.001 to 0.999 nM; in assay [4] it was 0.075 nM; in assay [5] (genotype 1a replicon), 0.001 to 0.999 nM.

On to `COC(=O)N[C@H](C(=O)N1CCC[C@H]1c1ncc(-c2ccc3c(c2)COc2c-3ccc3cc(-c4cnc([C@@H]5CCCN5C(=O)[C@@H](NC(=O)OC)[C@@H](C)OC)[nH]4)ccc23)[nH]1)C1CCOCC1` [Example 15], for which the EC50 was 0.001 to 0.99 nM in assay [1]; 0.001 to 0.99 nM in assay [2] (setting [11]); 0.001 to 0.999 nM in assay [3] (72 h, Table 1, 72 hours); 0.026 nM in assay [4] (72 h); 0.001 to 0.999 nM in assay [5] (setting [12]).

For the compound `COC(=O)N[C@H](C(=O)N1CCC[C@H]1c1nc(Cl)c(-c2ccc(-c3ccc4cc(-c5[nH]c([C@@H]6CCCN6C(=O)[C@@H](NC(=O)OC)C(C)C)nc5Cl)ccc4c3)cc2)[nH]1)C(C)C` [Example 380], the EC50 is 0.001 to 0.99 nM in assay [1]; above 5 nM in assay [2] (setting [6]); 0.001 to 0.999 nM in assay [3]; 0.006 nM in assay [4]; 0.001 to 0.999 nM in assay [5] (genotype 1a replicon).

In the case of `COC(=O)N[C@H](C(=O)N1CC2(CC2)C[C@H]1c1ncc(-c2ccc(-c3ccc4cc(-c5cnc([C@@H]6CCCN6C(=O)[C@H](NC(=O)OC)c6ccccc6)[nH]5)ccc4c3)cc2)[nH]1)C1CCOCC1` [Example 234], the EC50 was 0.001 to 0.99 nM in assay [1]; 0.001 to 0.99 nM in assay [2] (setting [7]); 0.001 to 0.999 nM in assay [3] (RLuc reporter); 0.011 nM in assay [4]; 0.001 to 0.999 nM in assay [5] (setting [8]).

As to `COC(=O)N[C@H](C(=O)N1CCC[C@H]1c1nc2c([nH]1)-c1ccc(-c3ccc4cc(-c5cnc([C@@H]6CCCN6C(=O)[C@H](NC(=O)C6CCOCC6)c6ccccc6)[nH]5)ccc4c3)cc1CC2)C(C)C` [Example 246], the EC50 in assay [1] was 0.001 to 0.99 nM; in assay [2] (setting [7]), 0.001 to 0.99 nM; in assay [3] (RLuc reporter), 0.001 to 0.999 nM; in assay [4] it was 0.045 nM; in assay [5] (setting [8]), 0.001 to 0.999 nM.

Consider `COC(=O)N[C@H](C(=O)N1CCC[C@H]1c1ncc(-c2ccc3cc(-c4ccc5c(ccc6nc([C@@H]7[C@H]8CC[C@H](C8)N7C(=O)[C@H](NC(=O)OC)c7ccccc7)[nH]c65)c4)ccc3c2)[nH]1)C1CCOCC1` [Example 327], for which the EC50 in assay [1] was 0.001 to 0.99 nM; in assay [2] (setting [6]), 0.001 to 0.99 nM; in assay [3], 0.001 to 0.999 nM; in assay [4], 0.011 nM; in assay [5] (genotype 1a replicon), 0.001 to 0.999 nM.

Consider `COC(=O)N[C@H](C(=O)N1CCC[C@H]1c1nc2c([nH]1)-c1ccc(-c3ccc4cc(-c5cnc([C@@H]6CCCN6C(=O)[C@H](NC(=O)C(C)(C)O)c6ccccc6)[nH]5)ccc4c3)cc1CC2)C(C)C` [Example 244], for which the EC50 in assay [1] is 0.001 to 0.99 nM; in assay [2] (setting [7]) it was 0.001 to 0.99 nM; in assay [3] (RLuc reporter), 0.001 to 0.999 nM; in assay [4] it was 0.014 nM; in assay [5] (setting [8]), 0.001 to 0.999 nM.

`COC(=O)N[C@H](C(=O)N1CCC[C@H]1c1ncc(-c2ccc(-c3ccc4c(c3)C(F)(F)c3cc(-c5cnc([C@@H]6CCCN6C(=O)[C@@H](NC(=O)OC)C(C)(C)C)[nH]5)ccc3-4)cc2)[nH]1)C1CCOCC1` [Example 201]: the EC50 in assay [1] was 0.001 to 0.99 nM; in assay [2] (setting [7]), above 5 nM; in assay [3] (RLuc reporter) it was 1 to 44 nM; in assay [4] it was 0.018 nM; in assay [5] (setting [8]), 0.001 to 0.999 nM.

Take `COC(=O)N[C@H](C(=O)N1CCC[C@H]1c1ncc(-c2ccc3cc(-c4ccc5c(ccc6nc([C@@H]7[C@H]8CC[C@H](C8)N7C(=O)[C@H](NC(=O)OC)c7ccccc7)[nH]c65)c4)ccc3c2)[nH]1)C(C)C` [Example 326]: the EC50 was 0.001 to 0.99 nM in assay [1]; 1 to 4.99 nM in assay [2] (setting [6]); 0.001 to 0.999 nM in assay [3]; 0.005 nM in assay [4]; 0.001 to 0.999 nM in assay [5] (genotype 1a replicon).

Turning to `COC(=O)N[C@H](C(=O)N1CCC[C@H]1c1nc2ccc3cc(-c4csc5cc(-c6cnc([C@@H]7CCCN7C(=O)[C@H](NC(=O)OC)c7ccccc7)[nH]6)ccc45)ccc3c2[nH]1)C(C)C` [Example 285], the EC50 in assay [1] was 0.001 to 0.99 nM; in assay [2] (setting [7]), 0.001 to 0.99 nM; in assay [3] (RLuc reporter) it was 0.001 to 0.999 nM; in assay [4] it was 0.006 nM; in assay [5] (setting [8]), 0.001 to 0.999 nM.

On to `COC(=O)N[C@H](C(=O)N1CCC[C@H]1c1ncc(-c2ccc3c(c2)COc2cc(-c4ccc5nc([C@@H]6[C@H]7CC[C@H](C7)N6C(=O)[C@H](NC(=O)OC)c6ccccc6)[nH]c5c4)ccc2-3)[nH]1)C(C)C` [Example 94], for which the EC50 was 0.001 to 0.99 nM in assay [1]; 0.001 to 0.99 nM in assay [2] (setting [9]); 0.001 to 0.999 nM in assay [3] (72 h, Table 2, 72 hours); 0.007 nM in assay [4] (72 h); 0.001 to 0.999 nM in assay [5] (setting [10]).
